These results are taken from ChEMBL document CHEMBL1146353, “Synthesis of fluorescent molecular probes specific for the receptor of blepharismone, a mating-inducing pheromone of the ciliate Blepharisma japonicum” (2007).

Molecules are shown by their SMILES. Active and inactive are the calls of the source. The rule behind the calls is not given here.

In experiment [1] the test system is Blepharisma japonicum. Briefly: Inhibition of blepharismone-induced monotypic pairing of Blepharisma japonicum R1072 upto 1 mM. The experiment is classed as functional.
In experiment [2] the test system is Blepharisma japonicum. As to the kind of experiment: Inhibition of blepharismone-induced monotypic pairing of Blepharisma japonicum R1072. The experiment is classed as functional.

With `CC(=O)c1ccccc1NC(=O)CCCc1ccc2ccc3cccc4ccc1c2c34`, the Inhibitory concentration in the experiment on Blepharisma japonicum [1] was greater than 1000 µM. Also, the result with Blepharisma japonicum [2] was inactive.

Take `O=C(CCCc1ccc2ccc3cccc4ccc1c2c34)Nc1ccc(O)cc1C(=O)C[C@H](O)C(=O)O`: the Inhibitory concentration in the experiment with Blepharisma japonicum [1] turned out to be 4 µM.

Consider `O=C(Cc1ccc(-c2ccccc2)cc1)Nc1ccc(O)cc1C(=O)C[C@H](O)C(=O)O`, for which the Inhibitory concentration with Blepharisma japonicum [1] was 4.8 µM.

For `CC(=O)c1ccccc1NC(=O)Cc1ccc(-c2ccccc2)cc1`, the Inhibitory concentration in the experiment with Blepharisma japonicum [1] is greater than 1000 µM. Further, the outcome in the experiment with Blepharisma japonicum [2] was inactive.
